According to patent US4102886A, “Process for the preparation of benzo(a)quinolizidine derivatives” (priority 1974, dated 1978):
Like-named read-outs stand apart in the source and are kept apart here.

Tests used:
[1] = system: serotonine-induced oedema; test: Tests performed on serotonine-induced oedema; type: in vivo
Procedure: Tests performed on serotonine-induced oedema
The tests were carried out on groups each consisting of 10 animals. The percentage inhibition of oedema, in relation to the untreated controls, was determined for each of the animals. The data listed in Table 3 are the averages of the inhibition values.

[2] = Analgesic effect by the hot-plate test; type: in vivo; conditions: 50 mg./kg. p.o.
rats = test: Acute toxicity tests; type: in vivo; conditions: p.o., Litchfield-Wildoxon method
Procedure: (§1) The acute toxicity values of the compounds were determined on rats, after oral administration. The LD50 values were calculated according to the Litchfield-Wildoxon method.

kaolin-induced oedema = test: Inhibition of kaolin-induced oedema; type: in vivo; conditions: 2 hours
Procedure: (§2) Inhibition of Kaolin- and carrageenin-induced oedema
(§3) The tests were carried out on groups each consisting of at least 10 animals. The percentage inhibition of oedema, in relation to the untreated controls, was determined for each of the animals, and the average values were calculated.

[3] = Inhibition of kaolin-induced oedema; type: in vivo; conditions: in vivo; LD50/ED50; read-out: Therapeutical index LD50/ED50, kaolin-oedema
Procedure: as §2, §3

[4] = system: carrageenin-induced oedema; test: Inhibition of carrageenin-induced oedema; type: in vivo; conditions: 1.5 hours
Procedure: as §2, §3

[5] = Inhibition of carrageenin-induced oedema; type: in vivo; conditions: in vivo; LD50/ED50; read-out: Therapeutical index LD50/ED50, carrageenin-oedema
Procedure: as §2, §3

[6] = Determination of ulcer index
[7] = in vivo
Acute toxicity tests = type: in vivo; conditions: rat, in vivo, po; rats, Litchfield-Wildoxon method
Procedure: as §1

[8] = Analgesic effect by the writhing test; type: in vivo; conditions: 100 mg./kg. p.o.
Cotton granuloma = Cotton granuloma test; type: in vivo; conditions: 50 mg./kg.
[9] = system: experimentally provoked fever; test: Antipyretic activity (experimentally provoked fever); type: in vivo; set-up: unit not given here
Excerpt: Besides their antiphlogistic activities, some of the benzo(a)quinolizidine derivatives exert antipyretic effects as well. On the basis of the tests performed on experimentally provoked fever, the antipyretic activities of the compounds according to the invention surpass the effect of amidazophenum.

COc1ccc2c(c1)c(CC(=O)O)c(C)n2C(=O)c1ccc(Cl)cc1 [Indomethacine, reference compound]
Percentage inhibition 1 hour after administration (serotonine-induced oedema) ([1]; 25 mg./kg. p.o.): 1.4%
Prolongation of the reaction time, % (2 hours after administration) [2]: no evaluable effect can be
LD50 (rats): 12 mg/kg
Inhibition of kaolin-induced oedema 2 hours after administration (kaolin-induced oedema; 10 mg./kg. p.o.): 27.2%
selectivity ratio [3]: 2.3
Inhibition of carrageenin-induced oedema 1.5 hours after administration ([4]; 10 mg./kg. p.o.): 26.7%
selectivity ratio [5]: 1.3
Erosion ([6]; female): 1/10
Ulcer ([6]; female): 3/10
ulcerogeneous effect ([6]; in words): marked ulcerogeneous effect
Erosion ([6]; male): 1/10
Ulcer ([6]; male): 3/10

CCCCC1C(=O)N(c2ccccc2)N(c2ccccc2)C1=O [Phenylbutazone]
Erosion [7]: 0/10
Percentage inhibition 1 hour after administration (serotonine-induced oedema) ([1]; 100 mg./kg. p.o.): 10.2%
Prolongation of the reaction time, % (2 hours after administration) [2]: no evaluable effect can be
LD50 (Acute toxicity tests): 1180 mg/kg
Inhibition of kaolin-induced oedema 2 hours after administration (kaolin-induced oedema; 50 mg./kg. p.o.): 27.5%
Activity, % (reduction of the number of writhings in relation to the controls) [8]: 17.6%
Inhibition of carrageenin-induced oedema 1.5 hours after administration ([4]; 50 mg./kg. p.o.): 24.3%
Effect, % (cotton granuloma test) (Cotton granuloma): 19.6%
Variation of body temperature ([9]; 25 mg./kg. p.o., 1 hour after administration): -0.82
Variation of body temperature ([9]; 25 mg./kg. p.o., 2 hours after administration): -0.84
Variation of body temperature ([9]; 25 mg./kg. p.o., 3 hours after administration): -0.73
Variation of body temperature ([9]; 50 mg./kg. p.o., 1 hour after administration): -1.05
Variation of body temperature ([9]; 50 mg./kg. p.o., 2 hours after administration): -1.07
Variation of body temperature ([9]; 50 mg./kg. p.o., 3 hours after administration): -0.76
